# According to US11987568B2, “Allosteric inhibitor of WEE1 kinase” (H. LEE MOFFITT CANCER CENTER AND RESEARCH INSTITUTE, INC., priority 2018, dated 2024):
# Values joined by “and” are separate entries in the source; they are usually repeats but may differ in a detail not shown here. Equal entries are not always repeated.
# Target: full length human WEE1 kinase (Homo sapiens, UniProt P30291)
# Assay: ELISA based assay: WEE1 phosphorylation of biotinylated H2B peptide spanning Tyr37
# Type: biochemical
# Design: A full length human WEE1 kinase that was enzymatically active was purified from insect cell; ELISA assay % Inhibition: concentration or dose not given beside the values
# Conditions: Table 1; several values in a cell are repeat determinations
# From the text: Designing of a Novel inhibitor Screening Platform: […] A full length human WEE1 kinase that was enzymatically active was purified from insect cell. […] NCI diversity set compound library ( 1600 compounds) was used for the screening.
# Sequence of full length human WEE1 kinase (P30291 whole entry): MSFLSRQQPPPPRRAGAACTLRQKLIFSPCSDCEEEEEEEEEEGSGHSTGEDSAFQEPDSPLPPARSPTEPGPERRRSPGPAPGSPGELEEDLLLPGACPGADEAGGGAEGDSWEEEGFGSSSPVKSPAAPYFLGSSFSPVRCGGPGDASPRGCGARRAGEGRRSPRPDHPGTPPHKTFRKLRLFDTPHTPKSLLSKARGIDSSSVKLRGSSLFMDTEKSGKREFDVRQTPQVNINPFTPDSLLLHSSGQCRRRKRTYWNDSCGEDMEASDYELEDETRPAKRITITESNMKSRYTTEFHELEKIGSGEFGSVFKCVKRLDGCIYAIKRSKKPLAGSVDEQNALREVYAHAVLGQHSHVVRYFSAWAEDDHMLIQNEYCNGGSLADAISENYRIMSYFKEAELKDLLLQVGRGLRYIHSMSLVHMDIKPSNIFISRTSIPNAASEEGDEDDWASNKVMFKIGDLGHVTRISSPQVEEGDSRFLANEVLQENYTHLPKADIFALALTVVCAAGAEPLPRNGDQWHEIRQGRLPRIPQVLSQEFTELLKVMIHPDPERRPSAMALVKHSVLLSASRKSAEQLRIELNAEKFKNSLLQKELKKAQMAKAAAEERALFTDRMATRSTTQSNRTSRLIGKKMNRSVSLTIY
row,Compound,ELISA Inhibition (%)
1,Nc1ccc(NC(=O)c2cccc(C(=O)Nc3ccc(N)cc3)c2)cc1 [SG5-103],12%
2,Cc1cc(C(=O)Nc2ccc(N)cc2)c(C)cc1C(=O)Nc1ccc(N)cc1 [SG5-110],14%
3,CC(C)(C)OC(=O)Nc1ccc(NC(=O)[C@H]2CC[C@H](C(=O)Nc3ccc(NC(=O)OC(C)(C)C)cc3)CC2)cc1 [SG5-121],−7%
4,"Nc1ccc(NC(=O)c2ccc(C(=O)Nc3ccc(N)cc3)nc2)cc1 [SG5-124, N^2,N^5-bis(4-aminophenyl)pyridine-2,5-dicarboxamide]",73% and 103%
5,Nc1ccc(NC(=O)[C@H]2CC[C@H](C(=O)Nc3ccc(N)cc3)CC2)cc1 [SG5-126],−39%
6,Nc1ccc(NC(=O)c2cccc(C(=O)Nc3ccc(N)cc3)n2)cc1 [SG5-128],2%
7,Cl.Nc1ccc(NC(=O)c2ccc(C(=O)Nc3ccc(N)c(Cl)c3)cc2)cc1Cl [SG5-137-2],−52%
8,CC(C)(C)OC(=O)NCc1ccc(NC(=O)c2ccc(C(=O)Nc3ccc(CNC(=O)OC(C)(C)C)cc3)o2)cc1 [SG5-140-10],13%
9,CC(C)(C)OC(=O)NCc1ccc(NC(=O)C2CCC(C(=O)Nc3ccc(CNC(=O)OC(C)(C)C)cc3)CC2)cc1 (stereo not drawn) [SG5-140-12],4%
10,CC(C)(C)OC(=O)Nc1ccc(CNC(=O)c2ccc(C(=O)NCc3ccc(NC(=O)OC(C)(C)C)cc3)o2)cc1 [SG5-140-14],−4%
11,CC(C)(C)OC(=O)Nc1ccc(CNC(=O)C2CCC(C(=O)NCc3ccc(NC(=O)OC(C)(C)C)cc3)CC2)cc1 (stereo not drawn) [SG5-140-16],8%
12,Cc1cc(C(=O)NC2CCN(C(=O)OC(C)(C)C)CC2)c(C)cc1C(=O)NC1CCN(C(=O)OC(C)(C)C)CC1 [SG5-140-17],10%
13,CC(C)(C)OC(=O)N1CCC(NC(=O)c2ccc(C(=O)NC3CCN(C(=O)OC(C)(C)C)CC3)o2)CC1 [SG5-140-18],−27%
14,CC(C)(C)OC(=O)N1CCC(NC(=O)c2ccc(C(=O)NC3CCN(C(=O)OC(C)(C)C)CC3)nc2)CC1 [SG5-140-19],28%
15,CC(C)(C)OC(=O)N1CCC(NC(=O)C2CCC(C(=O)NC3CCN(C(=O)OC(C)(C)C)CC3)CC2)CC1 (stereo not drawn) [SG5-140-20],28%
16,Cc1cc(C(=O)Nc2ccc(N)c(F)c2)c(C)cc1C(=O)Nc1ccc(N)c(F)c1.Cl [SG5-147-1],41%
17,Cl.Nc1ccc(NC(=O)c2ccc(C(=O)Nc3ccc(N)c(F)c3)o2)cc1F [SG5-147-2],37%

# The next lines start with the values.
row,ELISA Inhibition (%),Compound
1,−14%,CC(C)(C)OC(=O)Nc1ccc(NC(=O)c2cccc(C(=O)Nc3ccc(NC(=O)OC(C)(C)C)cc3)c2)cc1 [SG5-099]
2,−23%,Cc1cc(C(=O)Nc2ccc(NC(=O)OC(C)(C)C)cc2)c(C)cc1C(=O)Nc1ccc(NC(=O)OC(C)(C)C)cc1 [SG5-106]
3,−8%,"CC(C)(C)OC(=O)Nc1ccc(NC(=O)c2ccc(C(=O)Nc3ccc(NC(=O)OC(C)(C)C)cc3)o2)cc1 [SG5-107, Di-tert-butyl (((furan-2,5-dicarbonyl)bis(azanediyl))bis(4,1-phenylene))dicarbamate]"
4,−17%,"CC(C)(C)OC(=O)Nc1ccc(NC(=O)c2ccc(C(=O)Nc3ccc(NC(=O)OC(C)(C)C)cc3)nc2)cc1 [SG5-119, Di-tert-butyl (((pyridine-2,5-dicarbonyl)bis(azanediyl))bis(4,1-phenylene))dicarbamate]"
5,−39%,CC(C)(C)OC(=O)Nc1ccc(NC(=O)c2cccc(C(=O)Nc3ccc(NC(=O)OC(C)(C)C)cc3)n2)cc1 [SG5-123]
6,−57%,CC(C)(C)OC(=O)Nc1ccc(NC(=O)c2ccc(C(=O)Nc3ccc(NC(=O)OC(C)(C)C)c(F)c3)cc2)cc1F [SG5-133-1]
7,−38%,CC(C)(C)OC(=O)Nc1ccc(NC(=O)c2ccc(C(=O)Nc3ccc(NC(=O)OC(C)(C)C)c(Cl)c3)cc2)cc1Cl [SG5-133-2]
8,−24%,Nc1ccc(NC(=O)c2ccc(C(=O)Nc3ccc(N)c(F)c3)cc2)cc1F [SG5-137-1]
9,25%,Cc1cc(C(=O)Nc2ccc(NC(=O)OC(C)(C)C)c(F)c2)c(C)cc1C(=O)Nc1ccc(NC(=O)OC(C)(C)C)c(F)c1 [SG5-140-1]
10,25%,CC(C)(C)OC(=O)Nc1ccc(NC(=O)c2ccc(C(=O)Nc3ccc(NC(=O)OC(C)(C)C)c(F)c3)o2)cc1F [SG5-140-2]
11,22%,"CC(C)(C)OC(=O)Nc1ccc(NC(=O)c2ccc(C(=O)Nc3ccc(NC(=O)OC(C)(C)C)c(F)c3)nc2)cc1F [SG5-140-3, Di-tert-butyl (((pyridine-2,5-dicarbonyl)bis(azanediyl))bis(2-fluoro-4,1-phenylene))dicarbamate]"
12,20%,CC(C)(C)OC(=O)Nc1ccc(NC(=O)[C@H]2CC[C@H](C(=O)Nc3ccc(NC(=O)OC(C)(C)C)c(F)c3)CC2)cc1F [SG5-140-4]
13,24%,Cc1cc(C(=O)Nc2ccc(NC(=O)OC(C)(C)C)c(Cl)c2)c(C)cc1C(=O)Nc1ccc(NC(=O)OC(C)(C)C)c(Cl)c1 [SG5-140-5]
14,17%,CC(C)(C)OC(=O)Nc1ccc(NC(=O)c2ccc(C(=O)Nc3ccc(NC(=O)OC(C)(C)C)c(Cl)c3)o2)cc1Cl [SG5-140-6]
15,12%,CC(C)(C)OC(=O)Nc1ccc(NC(=O)c2ccc(C(=O)Nc3ccc(NC(=O)OC(C)(C)C)c(Cl)c3)nc2)cc1Cl [SG5-140-7]
16,25%,CC(C)(C)OC(=O)Nc1ccc(NC(=O)C2CCC(C(=O)Nc3ccc(NC(=O)OC(C)(C)C)c(Cl)c3)CC2)cc1Cl (stereo not drawn) [SG5-140-8]
17,18%,Cc1cc(C(=O)Nc2ccc(CNC(=O)OC(C)(C)C)cc2)c(C)cc1C(=O)Nc1ccc(CNC(=O)OC(C)(C)C)cc1 [SG5-140-9]
18,−6%,"CC(C)(C)OC(=O)NCc1ccc(NC(=O)c2ccc(C(=O)Nc3ccc(CNC(=O)OC(C)(C)C)cc3)nc2)cc1 [SG5-140-11, Di-tert-butyl ((((pyridine-2,5-dicarbonyl)bis(azanediyl))bis(4,1-phenylene))bis(methylene))dicarbamate]"
19,−4%,Cc1cc(C(=O)NCc2ccc(NC(=O)OC(C)(C)C)cc2)c(C)cc1C(=O)NCc1ccc(NC(=O)OC(C)(C)C)cc1 [SG5-140-13]
20,12%,CC(C)(C)OC(=O)Nc1ccc(CNC(=O)c2ccc(C(=O)NCc3ccc(NC(=O)OC(C)(C)C)cc3)nc2)cc1 [SG5-140-15]

# Same assay, conditions: Table 1; several values in a cell are repeat determinations; dihydrochloride
row,Compound,ELISA Inhibition (%)
1,"Cl.Nc1ccc(CNC(=O)c2ccc(C(=O)NCc3ccc(N)cc3)cc2)cc1 [SG5-137-3, N^1,N^4-bis(4-aminobenzyl)terephthalamide dihydrochloride]",32% and 60%

# Same assay, conditions: Table 3; No peptide = 100, No inhibitor = 0
row,Compound,ELISA assay % Inhibition [%]
1,"Nc1ccc(NC(=O)c2ccc(C(=O)Nc3ccc(N)cc3)nc2)cc1 [SG5-124, N^2,N^5-bis(4-aminophenyl)pyridine-2,5-dicarboxamide]",98
